Key:
[1] = tested on: Human immunodeficiency virus 1; assay: Antiviral activity against HIV-1 NL4-3 infected in human MT4 cells assessed as reduction in p24 gag protein expression incubated for 48 hrs by ELISA; assay type: functional, organism-based; conditions: Human immunodeficiency virus 1, NL4-3, MT4, 48 h
[2] = Cytotoxicity against human MT4 cells assessed as reduction in cell viability after 48 hrs by CellTiter-Glo assay; assay type: cell-based
[3] = Selectivity ratio of CC50 for cytotoxicity against human MT4 cells to IC50 for antiviral activity against HIV-1 NL4-3 infected in human MT4 cells; assay type: toxicity, cell-based; conditions: read-out: Ratio CC50/IC50

Structure (SMILES)	IC50 [1] [nM]	CC50 at 48 h [2] [nM]	selectivity ratio [3]
CCCCCCCC(=O)O[C@@]12[C@H](OC(=O)c3ccccc3)[C@@H](C)[C@]3(O)[C@@H]4C=C(C)C(=O)[C@@]4(O)[C@H](O)C(CO)=C[C@H]3[C@@H]1C2(C)C	12.8	> 164	
CCCCCCCC(=O)O[C@@]12[C@H](OC(=O)c3ccccc3)[C@@H](C)[C@@]3(O)[C@H]([C@@H]1C2(C)C)[C@@H](OO)C(CO)=C[C@]1(O)C(=O)C(C)=C[C@@H]31			< 5
CCCCCCCC(=O)O[C@@]12[C@H](OC(=O)c3ccccc3)[C@@H](C)[C@@]3(O)C(=C[C@](O)(CO)C[C@]4(O)C(=O)C(C)=C[C@@H]34)[C@@H]1C2(C)C	> 164	> 164	
CCCCCCCC(=O)O[C@@]12[C@H](OC(=O)CCCCC)[C@@H](C)[C@@]3(O)[C@@H](C(=O)C(CO)=C[C@]4(O)C(=O)C(C)=C[C@@H]34)[C@@H]1C2(C)C	> 164	> 164	
CCCCCCCC(=O)O[C@@]12[C@H](OC(=O)c3ccccc3)[C@@H](C)[C@@]3(O)[C@@H](C(=O)C(CO)=C[C@]4(O)C(=O)C(C)=C[C@@H]34)[C@@H]1C2(C)C	3.8	> 164	
CCCCCCCC(=O)O[C@@]12[C@H](OC(=O)c3ccccc3)[C@@H](C)[C@@]3(O)[C@H]([C@@H]1C2(C)C)[C@@H](O)C(CO)=C[C@]1(O)C(=O)C(C)=C[C@@H]31	> 164	> 164	
C=C(C)[C@]12C[C@@H](COC(=O)c3ccccc3)[C@@]34O[C@]5(O[C@@H]1[C@@H]3[C@@H]1O[C@]1(CO)[C@@H](O)[C@@]1(O)[C@H]4[C@H]([C@H](C)[C@@H]1OC(=O)c1ccccc1)[C@H](C)CCCCCC[C@H]5O)O2	0.07	> 5	

Reference: ChEMBL document CHEMBL4715862, “Anti-HIV Tigliane Diterpenoids from Wikstroemia scytophylla” (J Nat Prod, 2020)
